This test has as its target IDO1 (Homo sapiens, UniProt P14902). Kind of test: IDO1 Cellular Assay in HeLa Cells Stimulated with IFNγ. The format is cell-based. To be noted: read-out: HeLa Cell Potency, IC50.
IDO1, sequence (P14902 whole entry): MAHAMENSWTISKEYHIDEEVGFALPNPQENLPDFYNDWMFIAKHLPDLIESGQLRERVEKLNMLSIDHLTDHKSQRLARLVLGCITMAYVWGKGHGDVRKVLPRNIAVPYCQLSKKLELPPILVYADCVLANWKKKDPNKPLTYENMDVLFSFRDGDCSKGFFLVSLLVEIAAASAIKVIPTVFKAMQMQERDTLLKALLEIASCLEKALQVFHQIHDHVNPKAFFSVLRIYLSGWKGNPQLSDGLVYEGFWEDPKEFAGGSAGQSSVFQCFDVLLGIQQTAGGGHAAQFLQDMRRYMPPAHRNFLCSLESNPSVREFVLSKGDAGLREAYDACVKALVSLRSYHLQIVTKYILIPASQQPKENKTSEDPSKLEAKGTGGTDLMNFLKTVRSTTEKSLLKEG
With `Cc1cccc(N2CCN(C(=O)Cn3nc(C(=O)N4CC[C@@H]5[C@H](CCC(=O)N5C)C4)c4c3C[C@H]3C[C@@H]43)CC2)c1C` [Example 218, (4aR,8aR)-6-((3bR,4aR)-1-(2-(4-(2,3-dimethylphenyl)piperazin-1-yl)-2-oxoethyl)-3b,4,4a,5-tetrahydro-1H-cyclopropa[3,4]cyclopenta[1,2-c]pyrazole-3-carbonyl)-1-methyloctahydro-1,6-naphthyridin-2(1H)-one], the IC50 turned out to be 0.64 nM.

For the compound `Cc1cccc(N2CCN(C(=O)Cn3nc(C(=O)N4CCC5(CC4)CC(=O)N5)c4c3C[C@H]3C[C@@H]43)CC2)c1C` [Example 219, 7-[(3bR,4aR)-1-{2-[4-(2,3-dimethylphenyl)piperazin-1-yl]-2-oxoethyl}-3b,4,4a,5-tetrahydro-1H-cyclopropa[3,4]cyclopenta[1,2-c]pyrazole-3-carbonyl]-1,7-diazaspiro[3.5]nonan-2-one], the IC50 was determined as 0.86 nM.

In the case of `Cc1cccc(N2CCN(C(=O)Cn3nc(C(=O)N4CCC(C)(C(N)=O)CC4)c4c3C[C@H]3C[C@@H]43)CC2)c1C` [Example 220, 1-[(3bR,4aR)-1-{2-[4-(2,3-dimethylphenyl)piperazin-1-yl]-2-oxoethyl}-3b,4,4a,5-tetrahydro-1H-cyclopropa[3,4]cyclopenta[1,2-c]pyrazole-3-carbonyl]-4-methylpiperidine-4-carboxamide], the IC50 came out at 1.53 nM.

As to `Cc1cccc(N2CCN(C(=O)Cn3nc(C(=O)N4CCC(CO)(CO)CC4)c4c3C[C@H]3C[C@@H]43)CC2)c1C` [Example 221, 2-{(3bR,4aR)-3-[4,4-bis(hydroxymethyl)piperidine-1-carbonyl]-3b,4,4a,5-tetrahydro-1H-cyclopropa[3,4]cyclopenta[1,2-c]pyrazol-1-yl}-1-[4-(2,3-dimethylphenyl)piperazin-1-yl]ethan-1-one], the IC50 was 3.76 nM.

For `Cc1cccc(N2CCN(C(=O)Cn3nc(C(=O)N4CCC(NS(N)(=O)=O)CC4)c4c3C[C@H]3C[C@@H]43)CC2)c1C` [Example 222, N-{1-[(3bR,4aR)-1-{2-[4-(2,3-dimethylphenyl)piperazin-1-yl]-2-oxoethyl}-3b,4,4a,5-tetrahydro-1H-cyclopropa[3,4]cyclopenta[1,2-c]pyrazole-3-carbonyl]piperidin-4-yl}sulfuric diamide], the IC50 stood at 6.23 nM.

As to `Cc1cccc(N2CCN(C(=O)Cn3nc(C(=O)N4CC[C@@H](C#N)C4)c4c3C[C@H]3C[C@@H]43)CC2)c1C` [Example 223, (3R)-1-[(3bR,4aR)-1-{2-[4-(2,3-dimethylphenyl)piperazin-1-yl]-2-oxoethyl}-3b,4,4a,5-tetrahydro-1H-cyclopropa[3,4]cyclopenta[1,2-c]pyrazole-3-carbonyl] pyrrolidine-3-carbonitrile], the IC50 stood at 1.49 nM.

`Cc1cccc(N2CCN(C(=O)Cn3nc(C(=O)N4CCCC5(C4)NC(=O)NC5=O)c4c3C[C@H]3C[C@@H]43)CC2)c1C` (stereo partly drawn) [Example 224, 7-[(3bR,4aR)-1-{2-[4-(2,3-dimethylphenyl)piperazin-1-yl]-2-oxoethyl}-3b,4,4a,5-tetrahydro-1H-cyclopropa[3,4]cyclopenta[1,2-c]pyrazole-3-carbonyl]-1,3,7-triazaspiro[4.5]decane-2,4-dione]: the concentration for half-maximal inhibition (IC50) was 16.5 nM.

For the compound `Cc1cccc(N2CCN(C(=O)Cn3nc(C(=O)N4CCCC(N5CCCC5=O)C4)c4c3C[C@H]3C[C@@H]43)CC2)c1C` (stereo partly drawn) [Example 225, 1-{1-[(3bR,4aR)-1-{2-[4-(2,3-dimethylphenyl)piperazin-1-yl]-2-oxoethyl}-3b,4,4a,5-tetrahydro-1H-cyclopropa[3,4]cyclopenta[1,2-c]pyrazole-3-carbonyl]piperidin-3-yl}pyrrolidine-2-one], the IC50 worked out at 3.93 nM.

For `Cc1cccc(N2CCN(C(=O)Cn3nc(C(=O)N4CCCC(N5CCNC5=O)C4)c4c3C[C@H]3C[C@@H]43)CC2)c1C` (stereo partly drawn) [Example 226, 1-{1-[(3bR,4aR)-1-{2-[4-(2,3-dimethylphenyl)piperazin-1-yl]-2-oxoethyl}-3b,4,4a,5-tetrahydro-1H-cyclopropa[3,4]cyclopenta[1,2-c]pyrazole-3-carbonyl]piperidin-3-yl}imidazolidin-2-one], the IC50 stood at 6.33 nM.

As for `Cc1cccc(N2CCN(C(=O)Cn3nc(C(=O)N4CCC5(CC4)CNC(=O)N5C)c4c3C[C@H]3C[C@@H]43)CC2)c1C` [Example 227, 8-[(3bR,4aR)-1-{2-[4-(2,3-dimethylphenyl)piperazin-1-yl]-2-oxoethyl}-3b,4,4a,5-tetrahydro-1H-cyclopropa[3,4]cyclopenta[1,2-c]pyrazole-3-carbonyl]-1-methyl-1,3,8-triazaspiro[4.5]decan-2-one], the IC50 was 2.19 nM.

For `Cc1cccc(N2CCN(C(=O)Cn3nc(C(=O)N4CCC(N5CCCC5=O)CC4)c4c3C[C@H]3C[C@@H]43)CC2)c1C` [Example 228, 1-{2-[(3bR,4aR)-1-{2-[4-(2,3-dimethylphenyl)piperazin-1-yl]-2-oxoethyl}-3b,4,4a,5-tetrahydro-1H-cyclopropa[3,4]cyclopenta[1,2-c]pyrazole-3-carbonyl]piperidin-4-yl}pyrrolidin-2-one], the IC50 stood at 1 nM.

`Cc1cccc(N2CCN(C(=O)Cn3nc(C(=O)N4CC[C@@H](O)C[C@H]4C)c4c3C[C@H]3C[C@@H]43)CC2)c1C` [Example 231, 1-[4-(2,3-dimethylphenyl)piperazin-1-yl]-2-{(3bR,4aR)-3-[(2R,4R)-4-hydroxy-2-methylpiperidine-1-carbonyl]-3b,4,4a,5-tetrahydro-1H-cyclopropa[3,4]cyclopenta[1,2-c]pyrazol-1-yl}ethan-1-one]: the IC50 was 4.38 nM.

Take `Cc1cccc(N2CCN(C(=O)Cn3nc(C(=O)N4CC5(CNC5)C4)c4c3C[C@H]3C[C@@H]43)CC2)c1C` [Example 232, 2-[(3bR,4aR)-3-(2,6-diazaspiro[3.3]heptane-2-carbonyl)-3b,4,4a,5-tetrahydro-1H-cyclopropa[3,4]cyclopenta[1,2-c]pyrazol-1-yl]-1-[4-(2,3-dimethylphenyl)piperazin-1-yl]ethan-1-one]: the half-inhibitory concentration (IC50) was found to be 61.4 nM.

For `Cc1cccc(N2CCN(C(=O)Cn3nc(C(=O)N4CCC(C(F)F)C4)c4c3C[C@H]3C[C@@H]43)CC2)c1C` (stereo partly drawn) [Example 233, 2-{(3bR,4aR)-3-[3-(difluoromethyl)pyrrolidine-1-carbonyl]-3b,4,4a,5-tetrahydro-1H-cyclopropa[3,4]cyclopenta[1,2-c]pyrazol-1-yl}-1-[4-(2,3-dimethylphenyl)piperazin-1-yl]ethan-1-one], the IC50 amounted to 2.33 nM.

Take `Cc1cccc(N2CCN(C(=O)Cn3nc(C(=O)N4CCC5NCC5C4)c4c3C[C@H]3C[C@@H]43)CC2)c1C` (stereo partly drawn) [Example 236, 2-[(3bR,4aR)-3-(3,7-diazaspiro[4.2.0]octane-3-carbonyl)-3b,4,4a,5-tetrahydro-1H-cyclopropa[3,4]cyclopenta[1,2-c]pyrazol-1-yl]-1-[4-(2,3-dimethylphenyl)piperazin-1-yl]ethan-1-one]: the IC50 stood at 55 nM.

Consider `Cc1cccc(N2CCN(C(=O)Cn3nc(C(=O)N4CC[C@H]5[C@@H](C4)NC(=O)N5C)c4c3C[C@H]3C[C@@H]43)CC2)c1C` [Example 237, (3aR,7aS)-5-[(3bR,4aR)-1-{2-[4-(2,3-dimethylphenyl)piperazin-1-yl]-2-oxoethyl}-3b,4,4a,5-tetrahydro-1H-cyclopropa[3,4]cyclopenta[1,2-c]pyrazole-3-carbonyl]-1-methyloctahydro-2H-imidazo[4,5-c]pyridin-2-one], for which the IC50 turned out to be 79.1 nM.

Turning to `Cc1cccc(N2CCN(C(=O)Cn3nc(C(=O)N4CCC5NC(=O)OCC5C4)c4c3C[C@H]3C[C@@H]43)CC2)c1C` (stereo partly drawn) [Example 239, 6-[(3bR,4aR)-1-{2-[4-(2,3-dimethylphenyl)piperazin-1-yl]-2-oxoethyl}-3b,4,4a,5-tetahydro-1H-cyclopropa[3,4]cyclopenta[1,2-c]pyrazole-3-carbonyl]octahydro-2H-pyrido[4,3-d][1,3]oxazin-2-one], the IC50 turned out to be 6.53 nM.

On to `Cc1cccc(N2CCN(C(=O)Cn3nc(C(=O)N4CCC5NC(=O)OCC5C4)c4c3C[C@H]3C[C@@H]43)CC2)c1C` (stereo partly drawn) [Example 240, 6-[(3bR,4aR)-1-{2-[4-(2,3-dimethylphenyl)piperazin-1-yl]-2-oxoethyl}-3b,4,4a,5-tetrahydro-1H-cyclopropa[3,4]cyclopenta[1,2-c]pyrazole-3-carbonyl]octahydro-2H-pyrido[4,3-d][1,3]oxazin-2-one], for which the IC50 was 13.3 nM.

For `CN[C@H]1CCCN(C(=O)c2nn(CC(=O)N3CCN(c4cccc(C)c4C)CC3)c3c2[C@@H]2C[C@@H]2C3)C1` [Example 241, 1-[4-(2,3-dimethylphenyl)piperazin-1-yl]-2-{(3bR,4aR)-3-[(3S)-3-(methylamino)piperidine-1-carbonyl]-3b,4,4a,5-tetrahydro-1H-cyclopropa[3,4]cyclopenta[1,2-c]pyrazol-1-yl}ethan-1-one], the IC50 worked out at 164 nM.

With `Cc1cccc(N2CCN(C(=O)Cn3nc(C(=O)N4CCC(NC(=O)NN)CC4)c4c3C[C@H]3C[C@@H]43)CC2)c1C` [Example 242, N-{1-[(3bR,4aR)-1-{2-[4-(2,3-dimethylphenyl)piperazin-1-yl]-2-oxoethyl}-3b,4,4a,5-tetrahydro-1H-cyclopropa[3,4]cyclopenta[1,2-c]pyrazole-3-carbonyl]piperidin-4-yl}hydrazinecarboxamide], the IC50 was found to be 101 nM.

Take `Cc1cccc(N2CCN(C(=O)Cn3nc(C(=O)N4CC5(CCN(C)C5)C4)c4c3C[C@H]3C[C@@H]43)CC2)c1C` [Example 243, 1-[4-(2,3-dimethylphenyl)piperazin-1-yl]-2-[(3bR,4aR)-3-(6-methyl-2,6-diazaspiro[3.4]octane-2-carbonyl)-3b,4,4a,5-tetrahydro-1H-cyclopropa[3,4]cyclopenta[1,2-c]pyrazol-1-yl]ethan-1-one]: the IC50 came out at 160 nM.

On to `Cc1cccc(N2CCN(C(=O)Cn3nc(C(=O)N4CCC5(CC4)CNC(=O)CO5)c4c3C[C@H]3C[C@@H]43)CC2)c1C` [Example 244, 9-[(3bR,4aR)-1-{2-[4-(2,3-dimethylphenyl)piperazin-1-yl]-2-oxoethyl}-3b,4,4a,5-tetrahydro-1H-cyclopropa[3,4]cyclopenta[1,2-c]pyrazole-3-carbonyl]-1-oxa-4,9-diazaspiro[5.5]undecan-3-one], for which the IC50 came out at 4.77 nM.

As a reminder, the IC50 is the concentration at which inhibition is half-maximal.

The values above are taken from patent US12264134B2 (Merck Sharp & Dohme LLC, priority 2018, dated 2025).
